Data published in patent publication US10472391B2 (priority 2013, dated 2019).

Legend:
A549 cells = type: cell-based
[1] = test system: Hla-mediated cytotoxicity; settings: cited from earlier work
ADAM10 = biological target: T1, ADAM10 (Homo sapiens, UniProt O14672); experiment: IC50 of GI254023X (assay not given)
T1 sequence (O14672 214-748): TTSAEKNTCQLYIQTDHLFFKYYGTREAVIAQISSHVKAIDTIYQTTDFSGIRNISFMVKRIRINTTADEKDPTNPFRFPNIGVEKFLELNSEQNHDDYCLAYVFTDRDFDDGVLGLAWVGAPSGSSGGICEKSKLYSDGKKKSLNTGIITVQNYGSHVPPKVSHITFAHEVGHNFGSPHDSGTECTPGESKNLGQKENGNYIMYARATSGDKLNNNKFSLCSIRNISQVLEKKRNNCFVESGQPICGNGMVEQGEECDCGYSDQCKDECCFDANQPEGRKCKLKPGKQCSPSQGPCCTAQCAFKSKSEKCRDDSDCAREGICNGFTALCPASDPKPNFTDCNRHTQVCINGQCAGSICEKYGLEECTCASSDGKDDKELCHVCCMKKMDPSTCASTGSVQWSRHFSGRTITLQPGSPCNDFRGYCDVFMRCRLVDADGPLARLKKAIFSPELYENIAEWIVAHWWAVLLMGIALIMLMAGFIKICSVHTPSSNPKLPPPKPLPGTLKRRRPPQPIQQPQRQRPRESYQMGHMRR

Question: With `CNC(=O)[C@@H](NC(=O)[C@H](CCCc1ccccc1)[C@H](C)N(O)C=O)C(C)(C)C` [GI254023X, (R)—N—((S)-3,3-dimethyl-1-(methylamino)-1-oxobutan-2-yl)-2-((S)-1-(N-hydroxyformamido)-ethyl)-5-phenylpentanamide] as the molecule, how does the “inhibition of binding of radiolabelled Hla to A549 cells” value (A549 cells) read?
Answer: inhibition of binding of radiolabelled Hla to A549 cells

Question: And the “effect on Hla-mediated cytotoxicity” value [1]?
Answer: prevents Hla-mediated cytotoxicity

Question: What about the IC50 (ADAM10) of the same molecule?
Answer: ~5 µM
